# Laboratory results from patent US20170105407A1, “COMPOSITIONS AND METHODS FOR ENHANCING RED BLOOD CELL STORAGE TIME AND SURVIVABILITY USING NITRIC OXIDE RELEASING HYBRID HYDROGEL NANOPARTICLES” (ALBERT EINSTEIN COLLEGE OF MEDICINE, INC., priority 2014, published 2017).
# “Also recorded” adds a separate entry of the source.
# Tests used:
# stored RBCs [1] = assay: RBC glycolytic metabolism during storage over 42 days; assay type: cell-based; details: for ATP produced vs control / Adenine in stored blood vs control / Citrate in stored blood vs control / Glucose in stored blood vs control / Lactate produced vs control / Mannitol in stored blood vs control / Pyruvate produced vs control: over 42 days
# Experimental: In this example, the glyocotic metabolic mechanism was tested in stored blood. […] The main metabolic pathway of RBC is glycolysis and is primarily fueled by glucose. Glucose enters a RBC and is metabolized to produce ATP, and also pyruvate which in turn is converted to lactate. […] This pathway serves primarily to reduce nicotinamide adenine dinucleotide phosphate (NADPH). In conjunction with the glutathione reductase/peroxidase system, NADPH maintains the sulfhydryl groups of globin in their reduced state.
# In order to test RBC metabolism, four sets of stored RBCs were tested: RBCs treated with NO releasing nanoparticles (NOnp), RBCs treated with the S-nitrosothiol derivative of glutathione (GSNO), RBCs treated with NONOates (DTPANO), and a control group of RBCs that were not supplemented. GSNO, which due to its long half-life and ability to transnitrosate, has greater antimicrobial activity then NOnp alone against clinical isolates of gram positive and negative multi drug resistant pathogens. Given both the extended bioactive lifetime of GSNO compared to free NO and the potential differences in target tissues/cells and the success achieved with the NO releasing nanoparticle platform, it was undertaken to produce nanoparticles that were similar in character and structure, but with the capability of either releasing GSNO species or transferring NO via S-transnitrosation. FIGS. 8(A)-(D) show the behavior of various elements of the first step of the glycotic pathway over a period of 42 days. […] FIGS. 8(B)-(D) show the amount of adenine, mannitol, and citrate respectively. […] This is important because these components help RBCs resynthesize the energy carrier adenosine triphosphate (ATP). ATP is a key component in extending the shelf life of stored blood. FIGS. 9(A)-(D) depict the key components in the next step of the glycotic pathway, wherein ATP is created and pyruvate is produced and then converted to lactate. The longevity of stored blood increases as more ATP is produced and less pyruvate and lactate is produced. […] Overall, NOnp and GSNO treated RBC are much slower to lose initial metabolic markers of RBC health than both untreated RBCs and those treated with NONOates.
# RBC = assay: Mechanical properties (flexibility) of RBCs during storage; assay type: cell-based; details: at 1 week, 3 weeks, 5 weeks and 6 weeks of storage
# Source text: In this example, as shown in FIGS. 16(A)-(D), RBC flexibility is slowed for RBCs treated with NOnps and GSNO.
# stored blood = assay: Buildup of methemoglobin, plasma nitrite and plasma nitrate in stored blood over six weeks; assay type: cell-based; details: over a period of six weeks
# Experimental: In this example, the buildup of methemoglobin (MetHb), plasma nitrite and plasma nitrate was also measured over a period of six weeks. […] Nitrite levels were measured because higher nitrate levels are associated with positive RBC health and functionality. […] NO supplementation limits the progressive loss of nitrite and nitrate in RBCs, and such loss of nitrite and nitrate has been correlated with an increase in oxidative damage.
# stored RBCs [2] = assay: Storage lesion parameters of stored RBCs over 42 days (2,3-DPG, potassium, pH, free hemoglobin, microparticles); assay type: cell-based, human, hamster, rat; details: for 2,3 DPG level during storage / Levels of free hemoglobin (hemolysis) during storage / Potassium levels during storage / pH (acidification) during storage: all species (human, hamster, rat), 42 days storage; for Microparticle formation in stored blood: human, hamster, rat blood
# Experimental: NO releasing nanoparticles were added to the blood at 10 mg per 125 mL of whole blood. Stored blood was treated with the nanoparticles once every 48 hours at the above described dosing over a period of 21 days for the in vivo transfusion studies. The storage lesion studies were extended to a period of 6 weeks.
# In this example, the procedure was substantially the same as Example 6.1, except that transfused blood was stored for 42 days, and included human, hamster, and rat blood. FIGS. 5(D)-(F) show potassium levels and hemolysis over a six week period.
# Human RBC units were purchased from the San Diego Blood bank. Blood were preserved in blood collection bags and kept at 4° C.
# Blood was obtained from donor rats (˜300 g) Animals were anaesthetized (pentobarbital 60 mg/kg ip) and a femoral catheter (PE-50) was implanted and blood was drawn into 10 mL syringes containing 1.5 mL of citrate, phosphate, dextrose adenine solution (CPDA-1). Blood was leukoreduced, by passing through a neonatal high efficiency leukocyte reduction filter Purecell NEO (Pall Company, East Hills, N.Y.). The leukoreduced blood was centrifuged for 10 minutes at 1350 rpm and supernatant was partially removed to achieve approximately 75% Hct. Packed cell were transferred under sterile conditions to a preservative free blood collection tube and kept at 4° C.
# Blood was obtained from donor hamsters (˜80 g). Hamsters were anaesthetized (pentobarbital 60 mg/kg ip) and femoral catheter implanted. The blood from three hamsters was drawn into 10 mL syringes containing 1.5 mL CPDA-1, then leukoreduced as described before and centrifuged. Hamster packed cells were preserved in blood collection tube and kept at 4° C.
SMILES,ATP produced vs control (stored RBCs [1]),Adenine in stored blood vs control (stored RBCs [1]),Citrate in stored blood vs control (stored RBCs [1]),Glucose in stored blood vs control (stored RBCs [1]),Lactate produced vs control (stored RBCs [1]),Mannitol in stored blood vs control (stored RBCs [1]),Pyruvate produced vs control (stored RBCs [1]),RBC flexibility (RBC),Methemoglobin (MetHb) formation (stored blood),"2,3 DPG level during storage (stored RBCs [2])",Levels of free hemoglobin (hemolysis) during storage (stored RBCs [2]),Potassium levels during storage (stored RBCs [2]),pH (acidification) during storage (stored RBCs [2]),Microparticle formation in stored blood (stored RBCs [2]),Glucose-6-phosphate dehydrogenase (G6PD) vs control (stored RBCs [1]; during storage),Glyceraldehyde 3-phosphate dehydrogenase (GAPDH) vs control (stored RBCs [1]; during storage),Hexokinase (HK) vs control (stored RBCs [1]; during storage),Phosphofructokinase (PFK) vs control (stored RBCs [1]; during storage),Pyruvate kinase (PK) vs control (stored RBCs [1]; during storage)
NCCCN(CCCN)/[N+]([O-])=N/O [DPTANO],only produces slightly less than the control,retained higher amounts of each component than the control,retained higher amounts of each component than the control,maintaining slightly higher amounts of glucose,the control produces much more pyruvate and lactate,retained higher amounts of each component than the control,the control produces much more pyruvate and lactate,did not vary substantially from that of untreated blood,more met Hb formation; also recorded: increased the formation of met-hemoglobin,"prevented 2,3 DPG rapid decrease","either did not significantly differentiate from the control, or performed worse","either did not significantly differentiate from the control, or performed worse","either did not significantly differentiate from the control, or performed worse",faired similarly or worse than the control,–,–,–,–,–
"N[C@@H](CCC(=O)N[C@@H](CSN=O)C(=O)NCC(=O)O)C(=O)O [GSNO, S-nitrosothiol derivative of glutathione]",produce more ATP than the control,retained higher amounts of each component than the control,retained higher amounts of each component than the control,maintaining slightly higher amounts of glucose,the control produces much more pyruvate and lactate,retained higher amounts of each component than the control,the control produces much more pyruvate and lactate,remained more flexible than untreated and DPTANO treated blood,did not generate significantly more MetHb than the control,"prevented 2,3 DPG rapid decrease",did not increase the levels of free hemoglobin,slowed down potassium levels,prevented rapid acidification,reduced microparticle formation,maintained or even enhanced,maintained or even enhanced,maintained or even enhanced,maintained or even enhanced,maintained or even enhanced
